These results are taken from publication PMC5428881 (Chemical communications (Cambridge, England), 2011).

This data set relates to HeLa cells. The data set is described as follows: Cell permeability by fluorescence activated cell sorting. In kind it is cell-based. Particulars: FACS, 10 μM N-terminally fluorescein-conjugated peptide, 2 versus 1.

On to LTFCRYWARLCS [compound 2], for which the “increase in mean fluorescence (cell permeability)” value is listed as 2.5 fold.
